{"source": "ChEMBL document CHEMBL3885881", "about": "“DrugMatrix”", "organism": "Rattus norvegicus", "assay": "DrugMatrix - Regimen: Daily Repeat", "assay_type": "toxicity, organism-based, Sprague-Dawley", "design": "regimen Daily Repeat, gender Male, age 6-8 weeks", "conditions": "in vivo, po, 85 mg/kg, route oral GAVAGE, dose level Low, vehicle .5 % CMC; for ABSOLUTE BASOPHIL / ABSOLUTE EOSINOPHIL / ABSOLUTE LYMPHOCYTE / ABSOLUTE MONOCYTE / ABSOLUTE SEGMENTED NEUTROPHIL / BASOPHIL / EOSINOPHIL / ERYTHROCYTE COUNT / HEMATOCRIT / HEMOGLOBIN / LEUKOCYTE COUNT / LYMPHOCYTE / MEAN CORPUSCULAR HEMOGLOBIN / MEAN CORPUSCULAR HEMOGLOBIN CONCENTRATION / MEAN CORPUSCULAR VOLUME / MONOCYTE / NEUTROPHIL / NUCLEATED RED BLOOD CELLS / PLATELET COUNT: tissue Blood; for ALANINE AMINOTRANSFERASE / ALBUMIN / ALKALINE PHOSPHATASE / ASPARTATE AMINOTRANSFERASE / BLOOD UREA NITROGEN / CARBON DIOXIDE / CHLORIDE / CHOLESTEROL / CREATINE PHOSPHOKINASE / CREATININE / GLUCOSE / LACTATE DEHYDROGENASE / LIPASE / PHOSPHORUS / POTASSIUM / SODIUM / TOTAL BILIRUBIN / TOTAL PROTEIN / URIC ACID: tissue Plasma"}
{"compound": "CCCN(CCC)C(=O)C(CCC(=O)O)NC(=O)c1ccccc1", "note": "(stereo unspecified) [PROGLUMIDE]", "values": [{"measurement": "ABSOLUTE BASOPHIL", "setting": "72 h, time 3 day", "value": 0, "unit": "CELLS/uL"}, {"measurement": "ABSOLUTE EOSINOPHIL", "setting": "72 h, time 3 day", "value": 331.33, "unit": "CELLS/uL"}, {"measurement": "ABSOLUTE LYMPHOCYTE", "setting": "72 h, time 3 day", "value": 13210.67, "unit": "CELLS/uL"}, {"measurement": "ABSOLUTE MONOCYTE", "setting": "72 h, time 3 day", "value": 258, "unit": "CELLS/uL"}, {"measurement": "ABSOLUTE SEGMENTED NEUTROPHIL", "setting": "72 h, time 3 day", "value": 933.33, "unit": "CELLS/uL"}, {"measurement": "BASOPHIL", "setting": "72 h, time 3 day", "value": 0, "unit": "%"}, {"measurement": "EOSINOPHIL", "setting": "72 h, time 3 day", "value": 2.33, "unit": "%"}, {"measurement": "ERYTHROCYTE COUNT", "setting": "72 h, time 3 day", "value": 5.4, "unit": "x10E6/uL"}, {"measurement": "HEMATOCRIT", "setting": "72 h, time 3 day", "value": 34.93, "unit": "%"}, {"measurement": "HEMOGLOBIN", "setting": "72 h, time 3 day", "value": 13.17, "unit": "G/DL"}, {"measurement": "LEUKOCYTE COUNT", "setting": "72 h, time 3 day", "value": 14.73, "unit": "x10E3/uL"}, {"measurement": "LYMPHOCYTE", "setting": "72 h, time 3 day", "value": 89.67, "unit": "%"}, {"measurement": "MEAN CORPUSCULAR HEMOGLOBIN", "setting": "72 h, time 3 day", "value": 24.43, "unit": "pg"}, {"measurement": "MEAN CORPUSCULAR HEMOGLOBIN CONCENTRATION", "setting": "72 h, time 3 day", "value": 37.7, "unit": "G/DL"}, {"measurement": "MEAN CORPUSCULAR VOLUME", "setting": "72 h, time 3 day", "value": 64.7, "unit": "fL"}, {"measurement": "MONOCYTE", "setting": "72 h, time 3 day", "value": 1.67, "unit": "%"}, {"measurement": "NEUTROPHIL", "setting": "72 h, time 3 day", "value": 6.33, "unit": "%"}, {"measurement": "NUCLEATED RED BLOOD CELLS", "setting": "72 h, time 3 day", "value": "0.33 /100WBC"}, {"measurement": "PLATELET COUNT", "setting": "72 h, time 3 day", "value": 1332, "unit": "x10E3/uL"}, {"measurement": "ALANINE AMINOTRANSFERASE", "setting": "72 h, time 3 day", "value": 42.67, "unit": "u/L"}, {"measurement": "ALBUMIN", "setting": "72 h, time 3 day", "value": 4.33, "unit": "G/DL"}, {"measurement": "ALKALINE PHOSPHATASE", "setting": "72 h, time 3 day", "value": 435.67, "unit": "u/L"}, {"measurement": "ASPARTATE AMINOTRANSFERASE", "setting": "72 h, time 3 day", "value": 72.33, "unit": "u/L"}, {"measurement": "BLOOD UREA NITROGEN", "setting": "72 h, time 3 day", "value": 16, "unit": "mg/dL"}, {"measurement": "CARBON DIOXIDE", "setting": "72 h, time 3 day", "value": 25.33, "unit": "mmol/L"}, {"measurement": "CHLORIDE", "setting": "72 h, time 3 day", "value": 104.33, "unit": "MEQ/L"}, {"measurement": "CHOLESTEROL", "setting": "72 h, time 3 day", "value": 60.67, "unit": "mg/dL"}, {"measurement": "CREATINE PHOSPHOKINASE", "setting": "72 h, time 3 day", "value": 288, "unit": "u/L"}, {"measurement": "CREATININE", "setting": "72 h, time 3 day", "value": 0.18, "unit": "mg/dL"}, {"measurement": "GLUCOSE", "setting": "72 h, time 3 day", "value": 161.67, "unit": "mg/dL"}, {"measurement": "LACTATE DEHYDROGENASE", "setting": "72 h, time 3 day", "value": 90.33, "unit": "u/L"}, {"measurement": "LIPASE", "setting": "72 h, time 3 day", "value": 9, "unit": "u/L"}, {"measurement": "PHOSPHORUS", "setting": "72 h, time 3 day", "value": 13.33, "unit": "mg/dL"}, {"measurement": "POTASSIUM", "setting": "72 h, time 3 day", "value": 6.41, "unit": "MEQ/L"}, {"measurement": "SODIUM", "setting": "72 h, time 3 day", "value": 144.2, "unit": "MEQ/L"}, {"measurement": "TOTAL BILIRUBIN", "setting": "72 h, time 3 day", "value": 0.23, "unit": "mg/dL"}, {"measurement": "TOTAL PROTEIN", "setting": "72 h, time 3 day", "value": 5.93, "unit": "G/DL"}, {"measurement": "URIC ACID", "setting": "72 h, time 3 day", "value": 1.67, "unit": "mg/dL"}, {"measurement": "ABSOLUTE BASOPHIL", "setting": "120 h, time 5 day", "value": 0, "unit": "CELLS/uL"}, {"measurement": "ABSOLUTE EOSINOPHIL", "setting": "120 h, time 5 day", "value": 53.33, "unit": "CELLS/uL"}, {"measurement": "ABSOLUTE LYMPHOCYTE", "setting": "120 h, time 5 day", "value": 15727.33, "unit": "CELLS/uL"}, {"measurement": "ABSOLUTE MONOCYTE", "setting": "120 h, time 5 day", "value": 190.67, "unit": "CELLS/uL"}, {"measurement": "ABSOLUTE SEGMENTED NEUTROPHIL", "setting": "120 h, time 5 day", "value": 1162, "unit": "CELLS/uL"}, {"measurement": "BASOPHIL", "setting": "120 h, time 5 day", "value": 0, "unit": "%"}, {"measurement": "EOSINOPHIL", "setting": "120 h, time 5 day", "value": 0.33, "unit": "%"}, {"measurement": "ERYTHROCYTE COUNT", "setting": "120 h, time 5 day", "value": 5.46, "unit": "x10E6/uL"}, {"measurement": "HEMATOCRIT", "setting": "120 h, time 5 day", "value": 35.63, "unit": "%"}, {"measurement": "HEMOGLOBIN", "setting": "120 h, time 5 day", "value": 13.3, "unit": "G/DL"}, {"measurement": "LEUKOCYTE COUNT", "setting": "120 h, time 5 day", "value": 17.13, "unit": "x10E3/uL"}, {"measurement": "LYMPHOCYTE", "setting": "120 h, time 5 day", "value": 92, "unit": "%"}, {"measurement": "MEAN CORPUSCULAR HEMOGLOBIN", "setting": "120 h, time 5 day", "value": 24.37, "unit": "pg"}, {"measurement": "MEAN CORPUSCULAR HEMOGLOBIN CONCENTRATION", "setting": "120 h, time 5 day", "value": 37.4, "unit": "G/DL"}, {"measurement": "MEAN CORPUSCULAR VOLUME", "setting": "120 h, time 5 day", "value": 65.13, "unit": "fL"}, {"measurement": "MONOCYTE", "setting": "120 h, time 5 day", "value": 1, "unit": "%"}, {"measurement": "NEUTROPHIL", "setting": "120 h, time 5 day", "value": 6.67, "unit": "%"}, {"measurement": "NUCLEATED RED BLOOD CELLS", "setting": "120 h, time 5 day", "value": "0 /100WBC"}, {"measurement": "PLATELET COUNT", "setting": "120 h, time 5 day", "value": 1361, "unit": "x10E3/uL"}, {"measurement": "ALANINE AMINOTRANSFERASE", "setting": "120 h, time 5 day", "value": 50.67, "unit": "u/L"}, {"measurement": "ALBUMIN", "setting": "120 h, time 5 day", "value": 4, "unit": "G/DL"}, {"measurement": "ALKALINE PHOSPHATASE", "setting": "120 h, time 5 day", "value": 346.33, "unit": "u/L"}, {"measurement": "ASPARTATE AMINOTRANSFERASE", "setting": "120 h, time 5 day", "value": 79, "unit": "u/L"}, {"measurement": "BLOOD UREA NITROGEN", "setting": "120 h, time 5 day", "value": 17, "unit": "mg/dL"}, {"measurement": "CARBON DIOXIDE", "setting": "120 h, time 5 day", "value": 24.67, "unit": "mmol/L"}, {"measurement": "CHLORIDE", "setting": "120 h, time 5 day", "value": 108, "unit": "MEQ/L"}, {"measurement": "CHOLESTEROL", "setting": "120 h, time 5 day", "value": 61.67, "unit": "mg/dL"}, {"measurement": "CREATINE PHOSPHOKINASE", "setting": "120 h, time 5 day", "value": 409.67, "unit": "u/L"}, {"measurement": "CREATININE", "setting": "120 h, time 5 day", "value": 0.19, "unit": "mg/dL"}, {"measurement": "GLUCOSE", "setting": "120 h, time 5 day", "value": 187, "unit": "mg/dL"}, {"measurement": "LACTATE DEHYDROGENASE", "setting": "120 h, time 5 day", "value": 92.33, "unit": "u/L"}, {"measurement": "LIPASE", "setting": "120 h, time 5 day", "value": 8, "unit": "u/L"}, {"measurement": "PHOSPHORUS", "setting": "120 h, time 5 day", "value": 13.57, "unit": "mg/dL"}, {"measurement": "POTASSIUM", "setting": "120 h, time 5 day", "value": 5.82, "unit": "MEQ/L"}, {"measurement": "SODIUM", "setting": "120 h, time 5 day", "value": 144.9, "unit": "MEQ/L"}, {"measurement": "TOTAL BILIRUBIN", "setting": "120 h, time 5 day", "value": 0.27, "unit": "mg/dL"}, {"measurement": "TOTAL PROTEIN", "setting": "120 h, time 5 day", "value": 6.03, "unit": "G/DL"}, {"measurement": "URIC ACID", "setting": "120 h, time 5 day", "value": 1.67, "unit": "mg/dL"}]}
